Measured values reported in patent publication US20050234046A1 (Kalypsys, Inc., priority 2004, published 2005).

Tests used:
Test in all cases: Transient transfection (transactivation) assay in CV-1 cells, GAL4-PPAR chimera, luciferase reporter
Type in all cases: cell-based
[1] = molecular target: T1, PPAR alpha (Homo sapiens, UniProt Q07869)
T1 construct: expressed in transfected cells; host or cells: CV-1 cells
T1 sequence (Q07869 239-466 limits assumed): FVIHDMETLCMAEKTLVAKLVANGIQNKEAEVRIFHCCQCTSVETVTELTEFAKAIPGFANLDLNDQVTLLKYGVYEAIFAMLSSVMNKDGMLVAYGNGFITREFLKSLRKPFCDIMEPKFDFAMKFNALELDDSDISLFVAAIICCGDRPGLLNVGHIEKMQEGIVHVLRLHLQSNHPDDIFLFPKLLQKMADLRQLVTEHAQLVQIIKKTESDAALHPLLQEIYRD
How it was run: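 EC50 and efficacy come from a luciferase read-out after 20-24 hours of compound exposure (vehicle 1% DMSO) in transiently transfected CV-1 cells. These cells express a GAL4-PPAR ligand-binding-domain chimera plus a reporter with four or five GAL4 binding sites, and are kept in phenol-red free DME with 5% delipidated calf serum.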

[2] = molecular target: T2, PPAR delta (Homo sapiens, UniProt Q03181)
T2 construct: expressed in transfected cells; host or cells: CV-1 cells
T2 sequence (Q03181 211-439 limits assumed): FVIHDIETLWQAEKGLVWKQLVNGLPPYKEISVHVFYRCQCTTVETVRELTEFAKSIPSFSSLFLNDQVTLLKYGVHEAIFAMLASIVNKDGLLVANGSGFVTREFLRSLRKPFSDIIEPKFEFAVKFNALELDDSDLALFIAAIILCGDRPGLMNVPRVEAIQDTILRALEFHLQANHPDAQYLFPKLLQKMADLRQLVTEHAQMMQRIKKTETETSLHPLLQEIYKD

[3] = molecular target: T3, PPAR gamma (Homo sapiens, UniProt P37231)
T3 construct: expressed in transfected cells; host or cells: CV-1 cells
T3 sequence (P37231 238-503 limits assumed): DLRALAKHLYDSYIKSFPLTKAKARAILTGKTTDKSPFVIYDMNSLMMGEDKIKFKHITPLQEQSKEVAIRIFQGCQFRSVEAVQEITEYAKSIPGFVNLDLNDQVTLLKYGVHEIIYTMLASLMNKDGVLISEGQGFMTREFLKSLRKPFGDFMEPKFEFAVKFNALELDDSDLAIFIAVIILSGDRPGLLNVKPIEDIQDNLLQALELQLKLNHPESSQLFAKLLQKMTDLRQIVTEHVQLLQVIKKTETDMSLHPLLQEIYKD
From the text: Compounds may be screened for functional potency in transient transfection assays in CV-1 cells or other cell types for their ability to activate the PPAR subtypes (transactivation assay). A previously established chimeric receptor system was utilized to allow comparison of the relative transcriptional activity of the receptor subtypes on the same synthetic response element and to prevent endogenous receptor activation from complicating the interpretation of results. […] The ligand binding domains for murine and human PPAR-alpha, PPAR-gamma, and PPAR-delta are each fused to the yeast transcription factor GAL4 DNA binding domain. CV-1 cells were transiently transfected with expression vectors for the respective PPAR chimera along with a reporter construct containing four or five copies of the GAL4 DNA binding site driving expression of luciferase. After 8-16 h, the cells are replated into multi-well assay plates and the media is exchanged to phenol-red free DME medium supplemented with 5% delipidated calf serum. 4 hours after replating, cells were treated with either compounds or 1% DMSO for 20-24 hours. Luciferase activity was then assayed with Britelite (Perkin Elmer) following the manufacturer's protocol and measured with either the Perkin Elmer Viewlux or Molecular Devices Acquest Xsee, for example, Kliewer, S. A., et. al. Cell 1995, 83, 813-819). Rosiglitazone is used as a positive control in the hPPAR-γ assay. Wy-14643 and GW7647 is used as a positive control in the hPPAR-α assay. GW501516 is used as the positive control in the hPPAR-δ assay.

| SMILES | EC50 [1] | EC50 [2] | EC50 [3] |
| --- | --- | --- | --- |
| Cc1ccc(S(=O)(=O)N2CCN(c3ccc(Cl)c(Cl)c3)[C@@H](C)C2)cc1CC(=O)O [Example 102, {5-[4-(3,4-Dichloro-phenyl)-3-(S)-methyl-piperazine-1-sulfonyl]-2-methyl-phenyl}-acetic acid] | 5 to 100 µM | < 5 µM | 5 to 100 µM |
| Cc1ccc(S(=O)(=O)N2[C@@H](C)CN(c3ccc(C(F)(F)F)cn3)C[C@@H]2C)cc1CC(=O)O [Example 103, {5-[2,6-(S,S)-Dimethyl-4-(5-trifluoromethyl-pyridin-2-yl)-piperazine-1-sulfonyl]-2-methyl-phenyl}-acetic acid] | 5 to 100 µM | < 5 µM | 5 to 100 µM |
| Cc1ccc(S(=O)(=O)N2[C@H](C)CN(c3ccc(C(F)(F)F)c(Cl)c3)C[C@@H]2C)cc1CC(=O)O [Example 107, {5-[4-(3-Chloro-4-trifluoromethyl-phenyl)-2,6-dimethyl-piperazine-1-sulfonyl]-2-methyl-phenyl}-acetic acid] | > 100 µM | < 5 µM | > 100 µM |
| Cc1ccc(S(=O)(=O)N2C[C@H](C)N(c3ccc(C(F)(F)F)cn3)[C@@H](C)C2)cc1CC(=O)O [Example 108, {5-[3,5-(S,S)-Dimethyl-4-(5-trifluoromethyl-pyridin-2-yl)-piperazine-1-sulfonyl]-2-methyl-phenyl}-acetic acid] | 5 to 100 µM | < 5 µM | 5 to 100 µM |
| C[C@@H]1CN(c2ccc(OC(F)(F)F)cc2)C[C@H](C)N1S(=O)(=O)c1cccc(CC(=O)O)c1 [Example 109, {3-[2,6-Dimethyl-4-(4-trifluoromethoxy-phenyl)-piperazine-1-sulfonyl]-phenyl}-acetic acid] | 5 to 100 µM | < 5 µM | > 100 µM |
| Cc1cc(CC(=O)O)cc(S(=O)(=O)N2[C@H](C)CN(c3ccc(OC(F)(F)F)cc3)C[C@@H]2C)c1 [Example 110, {3-[2,6-Dimethyl-4-(4-trifluoromethoxy-phenyl)-piperazine-1-sulfonyl]-5-methyl-phenyl}-acetic acid] | 5 to 100 µM | < 5 µM | 5 to 100 µM |
| C[C@@H]1CN(c2ccc(OC(F)(F)F)cc2)C[C@H](C)N1S(=O)(=O)c1cc(CC(=O)O)cc(C(F)(F)F)c1 [Example 111, {3-[2,6-Dimethyl-4-(4-trifluoromethoxy-phenyl)-piperazine-1-sulfonyl]-5-trifluoromethyl-phenyl}-acetic acid] | 5 to 100 µM | < 5 µM | 5 to 100 µM |
| Cc1cc(CC(=O)O)cc(S(=O)(=O)N2[C@H](C)CN(c3ccc(C(F)(F)F)c(Cl)c3)C[C@@H]2C)c1 [Example 112, {3-[4-(3-Chloro-4-trifluoromethyl-phenyl)-2,6-dimethyl-piperazine-1-sulfonyl]-5-methyl-phenyl}-acetic acid] | 5 to 100 µM | < 5 µM | > 100 µM |
| C[C@@H]1CN(c2ccc(C(F)(F)F)c(F)c2)C[C@H](C)N1S(=O)(=O)c1cccc(CC(=O)O)c1 [Example 113, {3-[4-(3-Fluoro-4-trifluoromethyl-phenyl)-2,6-dimethyl-piperazine-1-sulfonyl]-phenyl}-acetic acid] | 5 to 100 µM | < 5 µM | > 100 µM |
| C[C@@H]1CN(c2ccc(C(F)(F)F)c(Cl)c2)C[C@H](C)N1S(=O)(=O)c1cccc(CC(=O)O)c1 [Example 114, {3-[4-(3-Chloro-4-trifluoromethyl-phenyl)-2,6-dimethyl-piperazine-1-sulfonyl]-phenyl}-acetic acid] | 5 to 100 µM | < 5 µM | > 100 µM |
| O=C(O)Cc1cccc(S(=O)(=O)N2CCN(c3ccc(Cl)c(Cl)c3)CC2)c1 [Example 115, {3-[4-(3,4-Dichloro-phenyl)-piperazine-1-sulfonyl]-phenyl}-acetic acid] | 5 to 100 µM | < 5 µM | 5 to 100 µM |
| O=C(O)Cc1cccc(S(=O)(=O)N2CCN(c3ccc(Cl)cc3)CC2)c1 [Example 116, {3-[4-(4-Chloro-phenyl)-piperazine-1-sulfonyl]-phenyl}-acetic acid] | > 100 µM | < 5 µM | 5 to 100 µM |
| Cc1ccc(N2CCN(S(=O)(=O)c3cccc(CC(=O)O)c3)CC2)c(C)c1 [Example 117, {3-[4-(2,4-Dimethyl-phenyl)-piperazine-1-sulfonyl]-phenyl}-acetic acid] | > 100 µM | < 5 µM | 5 to 100 µM |
| Cc1cccc(N2CCN(S(=O)(=O)c3cccc(CC(=O)O)c3)CC2C)c1 (stereo not drawn) [Example 118, [3-(3-methyl-4-m-tolyl-piperazine-1-sulfonyl)-phenyl]-acetic acid] | > 100 µM | 5 to 100 µM | 5 to 100 µM |
| Cc1ccc(N2CCN(S(=O)(=O)c3cccc(CC(=O)O)c3)CC2)cc1C [Example 119, {3-[4-(3,4-Dimethyl-phenyl)-piperazine-1-sulfonyl]-phenyl}-acetic acid] | 5 to 100 µM | 5 to 100 µM | 5 to 100 µM |
| Cc1ccc(Cl)cc1N1CCN(S(=O)(=O)c2cccc(CC(=O)O)c2)CC1 [Example 120, {3-[4-(5-Chloro-2-methyl-phenyl)-piperazine-1-sulfonyl]-phenyl}-acetic acid] | > 100 µM | > 100 µM | > 100 µM |
| O=C(O)Cc1cccc(S(=O)(=O)N2CCN(CCc3ccccc3)CC2)c1 [Example 121, [3-(4-phenethyl-piperazine-1-sulfonyl)-phenyl]-acetic acid] | > 100 µM | > 100 µM | > 100 µM |
| N#Cc1ccc(N2CCN(S(=O)(=O)c3cccc(CC(=O)O)c3)CC2)cc1 [Example 122, {3-[4-(4-Cyano-phenyl)-piperazine-1-sulfonyl]-phenyl}-acetic acid] | > 100 µM | 5 to 100 µM | > 100 µM |
| O=C(O)Cc1cccc(S(=O)(=O)N2CCN(Cc3ccc(F)cc3)CC2)c1 [Example 123, {3-[4-(4-Fluoro-benzyl)-piperazine-1-sulfonyl]-phenyl}-acetic acid] | > 100 µM | 5 to 100 µM | 5 to 100 µM |
| COc1ccc(N2CCN(S(=O)(=O)c3cccc(CC(=O)O)c3)CC2)cc1 [Example 124, {3-[4-(4-Methoxy-phenyl)-piperazine-1-sulfonyl]-phenyl}-acetic acid] | > 100 µM | 5 to 100 µM | 5 to 100 µM |
| O=C(O)Cc1cccc(S(=O)(=O)N2CCN(c3cccc(Br)c3)CC2)c1 [Example 125, {3-[4-(3-Bromo-phenyl)-piperazine-1-sulfonyl]-phenyl}-acetic acid] | 5 to 100 µM | 5 to 100 µM | 5 to 100 µM |
| CC(C)(C)c1ccc(N2CCN(S(=O)(=O)c3cccc(CC(=O)O)c3)CC2)cc1 [Example 126, {3-[4-(4-tert-butyl-phenyl)-piperazine-1-sulfonyl]-phenyl}-acetic acid] | 5 to 100 µM | 5 to 100 µM | < 5 µM |
| COc1ccc(N2CCN(S(=O)(=O)c3cccc(CC(=O)O)c3)CC2)cc1OC [Example 127, {3-[4-(3,4-Dimethoxy-phenyl)-piperazine-1-sulfonyl]-phenyl}-acetic acid] | > 100 µM | > 100 µM | > 100 µM |
